“And” between values parts separate entries of the source, which are not always exact repeats. Equal entries are not always repeated.
Legend:
[1] = tested on: Trypanosoma cruzi; assay: microbe, parasite or virus in culture; format: functional, organism-based, Tulahuen C4 (LacZ); conditions: Trypanosoma cruzi, Tulahuen C4 (LacZ), 96 h
[2] = cells; format: functional, cell-based; conditions: Rattus norvegicus, L6, 72 h
[3] = cells; format: functional, cell-based; conditions: Mus musculus, NMRI, BalbC or CD1 mice, Macrophage, 96 h
[4] = DNDI: Cytotoxicity in Vitro, 96 hour, in primary peritoneal mouse macrophages; format: functional, cell-based; conditions: Macrophage
[5] = tested on: Trypanosoma brucei rhodesiense; assay: microbe, parasite or virus in culture; format: functional, organism-based, STIB 900; conditions: Trypanosoma brucei, STIB 900, 72 h
[6] = tested on: Leishmania donovani; assay: microbe, parasite or virus in culture; format: functional, organism-based, MHOM/ET/67/L82
[7] = tested on: Leishmania donovani; assay: microbe, parasite or virus in culture; format: functional, organism-based, MHOM/ET/67/L82; remark: listed apart in the source
[8] = tested on: Plasmodium falciparum; assay: microbe, parasite or virus in culture; format: functional, organism-based, K1
[9] = Leishmania donovani, MHOM/ET/67/L82, 72 h
[10] = Leishmania donovani, MHOM/ET/67/L82, 96 h
[11] = Plasmodium falciparum, K1, 72 h

For `COc1cc(N[C@H](C)CCCN)c2ncccc2c1`, the IC50 [1] was 17.9 µM, the IC50 [2] was 43.2 µM and the IC50 [3] was > 38.6 µM. The IC50 [4] was 39.7 µM, the IC50 [5] was 4.78 µM and the IC50 [6, 9] was 48.6 µM. For the same molecule, the IC50 [7, 10] was 28.2 µM.
In the case of `CC1CS(=O)(=O)CCC1/N=N/c1ccc([N+](=O)[O-])o1` (configuration not stated), the IC50 [1] is reported as 0.19 µM, the IC50 [2] is reported as 87 µM and the IC50 [3] is reported as > 34.8 µM. For the same molecule, the IC50 [4] was 15.7 µM, the IC50 [5] was 1.44 µM and the IC50 [6, 9] was 2.76 µM. It also gave an IC50 [7, 10] of 20.7 µM.
With `C[C@@H]1[C@H](O)[C@@H](C)/C=C/C=C/C=C/C=C/C=C/C=C/C=C/[C@H](O[C@@H]2O[C@H](O)[C@@H](O)[C@H](N)[C@@H]2O)C[C@@H]2O[C@](O)(C[C@@H](O)C[C@@H](O)[C@H](O)CC[C@@H](O)C[C@@H](O)CC(=O)O[C@H]1C)C[C@H](O)[C@H]2C(=O)O` the IC50 [1] was 56.7 µM, the IC50 [2] was 10.3 µM and the IC50 [3] was 32.4 µM. The IC50 [4] was 22.4 µM, the IC50 [5] was 0.76 µM and the IC50 [6, 9] was 0.34 µM. It also gave an IC50 [7, 10] of 0.31 µM and an IC50 [8, 11] of 0.8 µM.
For `Cc1cc(C2CCCCC2)n(O)c(=O)c1` [CICLOPIROX OLAMINE], the IC50 [1] was 2.49 µM, the IC50 [2] was 1.04 µM and the IC50 [3] was > 11.2 µM. The IC50 [4] was 20.3 µM, the IC50 [5] was 0.8 µM and the IC50 [6, 9] was 1.64 µM. For the same molecule, the IC50 [7, 10] was 9.09 µM and the IC50 [8, 11] was 3.75 µM.
In the case of `CC(C)/N=c1\cc2n(-c3ccc(Cl)cc3)c3ccccc3nc-2cc1Nc1ccc(Cl)cc1` [CLOFAZIMINE], the IC50 [1] is reported as 38.2 µM, the IC50 [2] is reported as 9.97 µM and the IC50 [3] is reported as 6.34 µM. The IC50 [4] was 10.7 µM, the IC50 [5] was 7.63 µM and the IC50 [6, 9] was 22.4 µM. It also gave an IC50 [7, 10] of 0.95 µM and an IC50 [8, 11] of 4.1 µM.
Molecule `Clc1ccccc1C(c1ccccc1)(c1ccccc1)n1ccnc1` [CLOTRIMAZOLE] has an IC50 [2] of 2.99 µM, an IC50 [3] of 87 µM and an IC50 [4] of 32.5 µM.
In the case of `Clc1ccc(COC(Cn2ccnc2)c2ccc(Cl)cc2Cl)cc1` (configuration not stated) [ECONAZOLE], the IC50 [2] is reported as 15.6 µM, the IC50 [3] is reported as 67.6 µM and the IC50 [4] is reported as 22.8 µM.
For `Clc1ccc(COC(Cn2ccnc2)c2ccc(Cl)cc2Cl)c(Cl)c1` (configuration not stated) [MICONAZOLE], the IC50 [2] was 15.4 µM, the IC50 [3] was 62.7 µM and the IC50 [4] was 23.9 µM.
In the case of `N=C(N)c1ccc(OCCCCCOc2ccc(C(=N)N)cc2)cc1` [PENTAMIDINE], the IC50 [1] is reported as 4.44 µM, the IC50 [2] is reported as 8.87 µM and the IC50 [3] is reported as > 29.4 µM. The IC50 [4] was 7.78 µM, the IC50 [5] was 0.01 µM and the IC50 [6, 9] was 19.8 µM.
In the case of `CCN(CC)CCCCCCNc1cc(OC)cc2c(C)ccnc12` [SITAMAQUINE], the IC50 [1] is reported as 22 µM, the IC50 [2] is reported as 32.3 µM and the IC50 [3] is reported as > 29.1 µM. For the same molecule, the IC50 [4] was 21.4 µM, the IC50 [5] was 7.39 µM and the IC50 [6, 9] was 13.7 µM. For the same molecule, the IC50 [7, 10] was 19.5 µM and the IC50 [8, 11] was 0.08 µM.
For `Clc1ccc(C(Cn2ccnc2)OCc2ccsc2Cl)c(Cl)c1` (configuration not stated) [TIOCONAZOLE], the IC50 [4] was 51.1 µM, the IC50 [6] was 22.4 µM and 9.26 µM and the IC50 [7] was 13.1 µM. The IC50 [7, 10] was > 7.74 µM, the IC50 [8] was 0.63 µM and the IC50 [8, 11] was 1.07 µM.
In the case of `Cc1cccc(N(C)C(=S)Oc2ccc3ccccc3c2)c1` [TOLNAFTATE], the IC50 [1] is reported as 20 µM, the IC50 [2] is reported as 84.6 µM and the IC50 [3] is reported as > 97.6 µM. The IC50 [5] was 69.3 µM, the IC50 [6, 9] was 4.33 µM and the IC50 [7, 10] was 50.1 µM. For the same molecule, the IC50 [8, 11] was 19 µM.
Work on `CN1CCN(CCCN2c3ccccc3Sc3ccc(C(F)(F)F)cc32)CC1` [TRIFLUOPERAZINE] yielded an IC50 [1] of 10.1 µM, an IC50 [2] of 11 µM and an IC50 [3] of 24.5 µM. For the same molecule, the IC50 [5] was 1.23 µM, the IC50 [6, 9] was 52.9 µM and the IC50 [7, 10] was > 7.36 µM. It also gave an IC50 [8, 11] of 1.48 µM.
With `CN(C)CCCN1c2ccccc2Sc2ccc(C(F)(F)F)cc21` [TRIFLUPROMAZINE] the IC50 [1] was 15 µM, the IC50 [2] was 18.5 µM and the IC50 [3] was 28.4 µM. For the same molecule, the IC50 [5] was 1.42 µM, the IC50 [6, 9] was 79.8 µM and the IC50 [7, 10] was > 8.51 µM. For the same molecule, the IC50 [8, 11] was 2.72 µM.
With `Cc1c(C)c2c(c(C)c1O)CCC(C)(COc1ccc(CC3SC(=O)NC3=O)cc1)O2` (configuration not stated) [TROGLITAZONE] the IC50 [1] was 32.6 µM, the IC50 [2] was 80.6 µM and the IC50 [3] was > 67.9 µM. For the same molecule, the IC50 [5] was 59.3 µM, the IC50 [6, 9] was 4.26 µM and the IC50 [7, 10] was > 67.9 µM. The IC50 [8, 11] was 7.27 µM.
With `C[C@@H](c1ncncc1F)[C@](O)(Cn1cncn1)c1ccc(F)cc1F` [VORICONAZOLE] the IC50 [1] was 11.2 µM, the IC50 [2] was 195 µM and the IC50 [3] was > 85.9 µM. For the same molecule, the IC50 [5] was > 286 µM, the IC50 [6, 9] was > 286 µM and the IC50 [7, 10] was > 85.9 µM. The IC50 [8, 11] was > 143 µM.

From ChEMBL document CHEMBL3392926, “Antiprotozoal Activity Profiling of Approved Drugs: A Starting Point toward Drug Repositioning”
